Data reported in patent publication US12685312B2, “Sulfonamide apyrase inhibitors” (Texas Crop Science, Inc., priority 2022, dated 2026).

System: apyrase
Assay: Screen for apyrase inhibitors (Method 1, in vitro phosphate-release absorbance assay)
Format: biochemical
Details: inhibitor conc at 1 mM stock, 1 hr room temperature, absorbance 630 nm; rounded average of two assay results
Method in brief: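 Phosphate-release colorimetric assay (Windsor method) in 60 mM Hepes, 3 mM MgCl2, 3 mM CaCl2, 3 mM ATP, pH 6.5, with compound or DMSO control added. Released phosphate developed with ammonium molybdate and ascorbic acid/TCA, then stopped with citrate/acetic acid.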

Row | Structure (SMILES) | % Inhibition of Apyrase [%]
1 | O=C(Nc1cccc(C(F)(F)F)c1)c1cccc(NS(=O)(=O)c2ccc(Cl)c(C(=O)O)c2)c1 [I-321, 2-chloro-5-(N-(3-((3-(trifluoromethyl)phenyl)carbamoyl)phenyl)sulfamoyl)benzoic acid] | 57
2 | O=C(Nc1cccc(C(F)(F)F)c1)c1cccc(NS(=O)(=O)c2ccc(Br)c(C(=O)O)c2)c1 [I-322, 2-bromo-5-(N-(3-((3-(trifluoromethyl)phenyl)carbamoyl)phenyl)sulfamoyl)benzoic acid] | 47
3 | COc1ccc(OC)c(S(=O)(=O)Nc2cccc(C(=O)Nc3cccc(C(F)(F)F)c3)c2)c1 [I-323, 3-((2,5-dimethoxyphenyl)sulfonamido)-N-(3-(trifluoromethyl)phenyl)benzamide] | 42
4 | NC(=O)c1cc(NC(=O)c2cccc(NS(=O)(=O)c3ccc4c(c3)OCCO4)c2)ccc1Cl [I-325, N-(3-carbamoyl-4-chlorophenyl)-3-((2,3-dihydrobenzo[b][1,4]dioxine)-6-sulfonamido)benzamide] | 34
5 | COc1ccc(CC(=O)Nc2cccc(S(=O)(=O)Nc3ccc(Br)cc3)c2)cc1F [I-330, N-(3-(N-(4-bromophenyl)sulfamoyl)phenyl)-2-(3-fluoro-4-methoxyphenyl)acetamide] | 65
6 | COc1ccccc1C(=O)Nc1cccc(S(=O)(=O)Nc2ccc(Br)cc2)c1 [I-331, N-(3-(N-(4-bromophenyl)sulfamoyl)phenyl)-2-methoxybenzamide] | 64
7 | COc1ccc(C(=O)Nc2cccc(S(=O)(=O)Nc3ccc(Br)cc3)c2)cc1OC [I-333, N-(3-(N-(4-bromophenyl)sulfamoyl)phenyl)-3,4-dimethoxybenzamide] | 48
8 | Cn1cc(C(=O)Nc2cccc(S(=O)(=O)Nc3ccc(Br)cc3)c2)cn1 [I-335, N-(3-(N-(4-bromophenyl)sulfamoyl)phenyl)-1-methyl-1H-pyrazole-4-carboxamide] | 30
9 | O=C(Nc1cccc(NS(=O)(=O)c2c(Br)cc3[nH]c(=O)oc3c2Cl)c1)c1ccc(Br)cc1 [I-337, 4-bromo-N-(3-((5-bromo-7-chloro-2-oxo-2,3-dihydrobenzo[d]oxazole)-6-sulfonamido)phenyl)benzamide] | 73
10 | COc1ccc(Br)c(C(=O)Nc2cccc(NS(=O)(=O)c3ccc(C)c(C)c3)c2)c1 [I-338, 2-bromo-N-(3-((3,4-dimethylphenyl)sulfonamido)phenyl)-5-methoxybenzamide] | 69
11 | COc1ccccc1C(=O)Nc1cccc(NS(=O)(=O)c2ccc(C)c(C)c2)c1 [I-341, N-(3-((3,4-dimethylphenyl)sulfonamido)phenyl)-2-methoxybenzamide] | 64
12 | O=C(Nc1cccc(NS(=O)(=O)c2ccc(Cl)cc2)c1)c1ccc(F)cc1F [I-343, N-(3-((4-chlorophenyl)sulfonamido)phenyl)-2,4-difluorobenzamide] | 59
13 | O=C(Nc1cccc(NS(=O)(=O)c2ccc(Cl)cc2)c1)c1ccccc1 [I-344, N-(3-((4-chlorophenyl)sulfonamido)phenyl)benzamide] | 56
14 | CCCOc1ccc(C(=O)Nc2cccc(NS(=O)(=O)c3ccc(C)c(C)c3)c2)cc1OC [I-348, N-(3-((3,4-dimethylphenyl)sulfonamido)phenyl)-3-methoxy-4-propoxybenzamide] | 48
15 | COc1cc(Cl)c(C)cc1NC(=O)c1ccccc1S(=O)(=O)N(C)c1ccccc1 [I-350, N-(4-chloro-2-methoxy-5-methylphenyl)-2-(N-methyl-N-phenylsulfamoyl)benzamide] | 66
16 | CN(c1ccccc1)S(=O)(=O)c1ccccc1C(=O)Nc1ccc2c(c1)OCO2 [I-351, N-(benzo[d][1,3]dioxol-5-yl)-2-(N-methyl-N-phenylsulfamoyl)benzamide] | 53
17 | C#Cc1cccc(NC(=O)c2ccccc2S(=O)(=O)N(C)c2ccccc2)c1 [I-352, N-(3-ethynylphenyl)-2-(N-methyl-N-phenylsulfamoyl)benzamide] | 48
18 | O=C(Nc1ccc(SC(F)F)cc1)c1ccccc1S(=O)(=O)N1CCCCC1 [I-353, N-(4-((difluoromethyl)thio)phenyl)-2-(piperidin-1-ylsulfonyl)benzamide] | 44
19 | O=C(Nc1ccc(OC(F)F)c(Cl)c1)c1ccccc1S(=O)(=O)N1CCCCC1 [I-354, N-(3-chloro-4-(difluoromethoxy)phenyl)-2-(piperidin-1-ylsulfonyl)benzamide] | 43
20 | CN(c1ccccc1)S(=O)(=O)c1ccccc1C(=O)Nc1ccc(Cl)cc1F [I-355, N-(4-chloro-2-fluorophenyl)-2-(N-methyl-N-phenylsulfamoyl)benzamide] | 43
21 | O=C(Nc1ccc(S(=O)(=O)N2CCCC2)cc1)c1ccccc1NS(=O)(=O)c1cccc(C(F)(F)F)c1 [I-373, N-(4-(pyrrolidin-1-ylsulfonyl)phenyl)-2-((3-(trifluoromethyl)phenyl)sulfonamido) benzamide] | 71
22 | O=C(Nc1ccc(F)cc1)c1ccccc1NS(=O)(=O)c1cccc(C(F)(F)F)c1 [I-374, N-(4-fluorophenyl)-2-((3-(trifluoromethyl)phenyl)sulfonamido) benzamide] | 48
23 | O=C(c1ccccc1NS(=O)(=O)c1cccc(C(F)(F)F)c1)N1CCc2ccccc21 [I-375, N-(2-(indoline-1-carbonyl)phenyl)-3-(trifluoromethyl)benzenesulfonamide] | 43
24 | O=C(Nc1ccccc1)c1ccccc1NS(=O)(=O)c1cccc(C(F)(F)F)c1 [I-377, N-phenyl-2-((3-(trifluoromethyl)phenyl)sulfonamido) benzamide] | 20
25 | CC1Cc2ccccc2N1C(=O)c1ccc(S(=O)(=O)Nc2ccccc2)cc1 (centres unmarked) [I-381, 4-(2-methylindoline-1-carbonyl)-N-phenylbenzenesulfonamide] | 72

The next lines start with the values.

Row | % Inhibition of Apyrase [%] | Structure (SMILES)
26 | 67 | CC(=O)c1cccc(S(=O)(=O)Nc2cccc(C(=O)Nc3cccc(C(F)(F)F)c3)c2)c1 [I-319, 3-((3-acetylphenyl)sulfonamido)-N-(3-(trifluoromethyl)phenyl)benzamide]
27 | 62 | Cc1cccc(NC(=O)c2cccc(NS(=O)(=O)c3ccc4c(c3)OCCO4)c2)c1C [I-320, 3-((2,3-dihydrobenzo[b][1,4]dioxine)-6-sulfonamido)-N-(2,3-dimethylphenyl)benzamide]
28 | 41 | O=C(O)CCc1ccc(S(=O)(=O)Nc2cccc(C(=O)Nc3cccc(C(F)(F)F)c3)c2)cc1 [I-324, 3-(4-(N-(3-((3-(trifluoromethyl)phenyl)carbamoyl)phenyl)sulfamoyl)phenyl)propanoic acid]
29 | 13 | O=C(Nc1cccc(C(F)(F)F)c1)c1cccc(NS(=O)(=O)c2ccccc2F)c1 [I-326, 3-((2-fluorophenyl)sulfonamido)-N-(3-(trifluoromethyl)phenyl)benzamide]
30 | 65 | O=C(/C=C/c1cccc(Cl)c1)Nc1cccc(S(=O)(=O)Nc2ccc(Br)cc2)c1 [I-329, (E)-N-(3-(N-(4-bromophenyl)sulfamoyl)phenyl)-3-(3-chlorophenyl)acrylamide]
31 | 60 | N#Cc1ccc(C(=O)Nc2cccc(S(=O)(=O)Nc3ccc(Br)cc3)c2)cc1 [I-332, N-(3-(N-(4-bromophenyl)sulfamoyl)phenyl)-4-cyanobenzamide]
32 | 40 | C[S+]([O-])c1ccc(C(=O)Nc2cccc(S(=O)(=O)Nc3ccc(Br)cc3)c2)cc1 (centres unmarked) [I-334, N-(3-(N-(4-bromophenyl)sulfamoyl)phenyl)-4-(methylsulfinyl)benzamide]
33 | 69 | COc1cc(C(=O)Nc2cccc(NS(=O)(=O)c3ccc(C)c(C)c3)c2)cc2c1OCCO2 [I-339, N-(3-((3,4-dimethylphenyl)sulfonamido)phenyl)-8-methoxy-2,3-dihydrobenzo[b][1,4]dioxine-6-carboxamide]
34 | 65 | O=C(Nc1cccc(NS(=O)(=O)c2ccc(Cl)cc2)c1)c1ccc2[nH]nnc2c1 [I-340, N-(3-((4-chlorophenyl)sulfonamido)phenyl)-1H-benzo[d][1,2,3]triazole-5-carboxamide]
35 | 63 | O=C(Nc1cccc(NS(=O)(=O)c2ccc(Cl)cc2)c1)c1ccc2[nH]cnc2c1 [I-342, N-(3-((4-chlorophenyl)sulfonamido)phenyl)-1H-benzo[d]imidazole-5-carboxamide]
36 | 53 | Cc1cccc(C(=O)Nc2cccc(NS(=O)(=O)c3ccccc3)c2)c1[N+](=O)[O-] [I-345, 3-methyl-2-nitro-N-(3-(phenylsulfonamido)phenyl)benzamide]
37 | 53 | Cc1ccc(S(C)(=O)=O)cc1C(=O)Nc1cccc(NS(=O)(=O)c2ccc(Cl)cc2)c1 [I-346, N-(3-((4-chlorophenyl)sulfonamido)phenyl)-2-methyl-5-(methylsulfonyl)benzamide]
38 | 52 | Cc1ccc(C(=O)Nc2cccc(NS(=O)(=O)c3ccccc3)c2)cc1[N+](=O)[O-] [I-347, 4-methyl-3-nitro-N-(3-(phenylsulfonamido)phenyl)benzamide]
39 | 10 | O=C(Nc1cccc(C(F)(F)F)c1)c1ccccc1S(=O)(=O)N1CCCCC1 [I-356, 2-(piperidin-1-ylsulfonyl)-N-(3-(trifluoromethyl)phenyl)benzamide]
40 | 35 | O=C(Nc1ccc(OC(F)F)cc1)c1ccccc1NS(=O)(=O)c1ccc(F)cc1 [I-376, N-(4-(difluoromethoxy)phenyl)-2-((4-fluorophenyl)sulfonamido)benzamide]
41 | 73 | O=C(Nc1ccc(F)cc1Cl)c1ccc(S(=O)(=O)Nc2ccc(SC(F)F)cc2)cc1 [I-380, N-(2-chloro-4-fluorophenyl)-4-(N-(4-((difluoromethyl)thio)phenyl)sulfamoyl) benzamide]
